Laboratory results published in the NIST ThermoML archive (doi:10.1021/je049579x).
“And” between values parts separate entries of the source, which are not always exact repeats. Equal entries are not always repeated.

Settings: Crystal, Torsion effusion method

[Br][Yb]([Br])[Br] [ytterbium tribromide]
Settings	vapor or sublimation pressure
891 K	4.7e-05 kPa
897 K	7.9e-05 kPa and 6.3e-05 kPa
905 K	9.3e-05 kPa and 6.3e-05 kPa
906 K	0.000126 kPa
909 K	0.00011 kPa
912 K	7.9e-05 kPa
913 K	0.00011 kPa
915 K	0.000158 kPa
916 K	0.000158 kPa
920 K	0.000126 kPa
923 K	0.000158 kPa and 0.000219 kPa
924 K	0.000219 kPa
926 K	0.000219 kPa
928 K	0.000191 kPa
929 K	0.000158 kPa
932 K	0.000316 kPa
933 K	0.000316 kPa
934 K	0.000347 kPa
936 K	0.000251 kPa and 0.000219 kPa
937 K	0.000347 kPa
938 K	0.000282 kPa
940 K	0.000427 kPa
942 K	0.000437 kPa
943 K	0.000468 kPa
945 K	0.000468 kPa and 0.000331 kPa
946 K	0.000347 kPa
947 K	0.00038 kPa
948 K	0.000562 kPa
952 K	0.000631 kPa
953 K	0.000692 kPa
954 K	0.000631 kPa
955 K	0.000525 kPa
956 K	0.000537 kPa and 0.000501 kPa
958 K	0.000794 kPa
963 K	0.000851 kPa
964 K	0.000933 kPa
965 K	0.000759 kPa [middle of 4 runs]
969 K	0.001122 kPa
972 K	0.001175 kPa
973 K	0.000977 kPa and 0.001259 kPa
974 K	0.000933 kPa and 0.00138 kPa
975 K	0.000977 kPa
978 K	0.001585 kPa
979 K	0.001122 kPa
980 K	0.001585 kPa
982 K	0.001698 kPa
983 K	0.00138 kPa
984 K	0.001349 kPa
985 K	0.001995 kPa
988 K	0.002042 kPa
990 K	0.002188 kPa
991 K	0.001622 kPa
992 K	0.001905 kPa
993 K	0.00257 kPa
994 K	0.001905 kPa
995 K	0.002754 kPa
997 K	0.002692 kPa
1000 K	0.002399 kPa
1002 K	0.002512 kPa
1003 K	0.003631 kPa
1006 K	0.003467 kPa
1008 K	0.004169 kPa
1009 K	0.003162 kPa
1012 K	0.003388 kPa
1013 K	0.004677 kPa
1018 K	0.003981 kPa
1021 K	0.004365 kPa and 0.00631 kPa
1022 K	0.006457 kPa
1026 K	0.005012 kPa
1032 K	0.005754 kPa

[Cl][Yb]([Cl])[Cl] [ytterbium trichloride]
Settings	vapor or sublimation pressure
944 K	0.000158 kPa
950 K	0.000126 kPa
952 K	0.000126 kPa
953 K	0.000158 kPa
958 K	0.000158 kPa and 0.000282 kPa
961 K	0.000219 kPa
962 K	0.000191 kPa
966 K	0.000191 kPa and 0.000251 kPa
970 K	0.000251 kPa
972 K	0.000251 kPa
974 K	0.000347 kPa and 0.000316 kPa
975 K	0.000316 kPa and 0.000501 kPa
976 K	0.000282 kPa
980 K	0.00038 kPa
981 K	0.00038 kPa
982 K	0.000437 kPa and 0.00038 kPa
983 K	0.000437 kPa
986 K	0.000407 kPa
990 K	0.000603 kPa and 0.000468 kPa and 0.000537 kPa
992 K	0.000562 kPa
993 K	0.000871 kPa
994 K	0.000631 kPa
996 K	0.000631 kPa
999 K	0.000759 kPa and 0.000692 kPa
1000 K	0.000794 kPa and 0.000759 kPa
1001 K	0.000724 kPa
1005 K	0.000851 kPa and 0.001349 kPa
1007 K	0.001 kPa
1008 K	0.000912 kPa
1010 K	0.000977 kPa and 0.001 kPa
1015 K	0.001175 kPa and 0.00123 kPa
1016 K	0.001413 kPa
1017 K	0.00123 kPa and 0.001905 kPa
1019 K	0.001318 kPa
1020 K	0.001349 kPa and 0.001549 kPa
1023 K	0.001514 kPa
1026 K	0.001622 kPa
1029 K	0.001698 kPa
1030 K	0.002884 kPa
1035 K	0.002188 kPa
1036 K	0.002089 kPa and 0.002344 kPa and 0.002239 kPa
1038 K	0.002239 kPa and 0.002188 kPa
1044 K	0.002692 kPa and 0.00302 kPa and 0.004571 kPa
1046 K	0.002884 kPa
1048 K	0.00302 kPa
1050 K	0.003388 kPa
1052 K	0.003802 kPa
1053 K	0.003802 kPa
1054 K	0.003981 kPa
1055 K	0.003802 kPa and 0.006761 kPa
1057 K	0.004074 kPa
1062 K	0.005129 kPa and 0.005012 kPa
1063 K	0.004677 kPa and 0.004898 kPa and 0.005012 kPa
1064 K	0.004898 kPa
1071 K	0.005888 kPa and 0.006761 kPa and 0.006918 kPa
1072 K	0.00631 kPa and 0.006918 kPa and 0.006457 kPa
1079 K	0.008318 kPa
1081 K	0.008913 kPa and 0.00912 kPa
1082 K	0.00871 kPa
1087 K	0.01 kPa
1088 K	0.01202 kPa and 0.01148 kPa
1090 K	0.01202 kPa
1096 K	0.01349 kPa
